Key:
[1] = system: high fat diet (HFD) rabbit model of metabolic-associated steatohepatitis (MASH); experiment: HFD rabbit study, acute 5-day treatment: liver histomorphology (Giemsa, Masson's trichrome, PSR, SHG); assay type: in vivo, New Zealand White rabbits; conditions: 30 mg/kg p.o. 5 days, week 12; for Ballooning score 0 (no ballooning), share of animals / Ballooning score 1 (few ballooned cells), share of animals / Ballooning score 2 (prominent ballooning), share of animals / Fibrosis (Ishak Score) 0, share of animals / Fibrosis (Ishak Score) 1, share of animals / Fibrosis (Ishak Score) 2, share of animals / Fibrosis (Ishak Score) 3, share of animals / Fibrosis (Ishak Score) 4, share of animals / Fibrosis (Ishak Score) 5, share of animals / Inflammation score 0 (no foci), share of animals / Inflammation score 1 (<2 foci), share of animals / Inflammation score 2 (2–4 foci), share of animals / Inflammation score 3 (> 4 foci), share of animals: n = 3
Protocol: After 1 week of standard diet, animals (n = 12) were randomly assigned to the following groups (Table 1A): • Control rabbits continued to receive a regular diet (RD) for 12 weeks and were treated for 5 days (days 1–5, p.o.), during the last week before culling, with either vehicle; RD+1W Veh group] or GB1211 (30 mg/kg; RD + 1W 30 mg group); • Rabbits received a high fat diet (HFD) for 12 weeks (RD implemented with 0.5% cholesterol and 2.5% vegetable fat) and were treated for 5 days (days 1–5, p.o.), during the last week before culling, with either vehicle (HFD + 1W Veh group) or GB1211 (30 mg/kg; HFD + 1W 30 mg group).
Liver specimens were fixed in 10% buffered formalin (Sigma-Aldrich Corp., St. Louis, MO), paraffin embedded and sectioned at a thickness of 5 μm with a microtome. The slides were stained with hematoxylin and eosin (H&E; both Bio-Optica, Milan, Italy), following standard protocols for histological analysis, to evaluate the general morphology and tissue structure, and then analyzed to evaluate inflammation and […] using Giemsa and Masson’s trichrome staining, respectively. Briefly, deparaffinized and rehydrated sections were incubated with Giemsa (Bio-Optica) in distilled water at ratio 1:1 or with Masson’s trichrome (Bio-Optica), following the manufacturer’s instructions, as previously described ([Vignozzi et al., 2014]). To evaluate lipid accumulation, liver specimens were also cryosectioned at a thickness of 8 μm, fixed with 4% paraformaldehyde, treated for 2–5 min with isopropanol and stained with Oil Red O (Bio-Optica) for 20 min, following the manufacturer’s instructions.
In liver, collagen content evaluation for fibrosis grade and quantification was conducted by staining using Picrosirius Red Stain kit (Bio-Optica), as per manufacturer’s instructions. Briefly, deparaffinized and rehydrated sections were incubated with the staining solution for 50 min, rinsed with the appropriate reagents and with distilled water, dehydrated through ascending alcohols and xylene, and mounted, as previously described ([Comeglio et al., 2017]).
Blinded images of unstained sections of liver were acquired using a Genesis®200 imaging system (HistoIndex, Singapore) and analyzed by Second Harmonic Generation (SHG) microscopy to visualize collagen and Two-Photon Excitation Fluorescence (TPEF) microscopy to visualize the other tissue structures as previously described ([Liu et al., 2017]).
Briefly, deparaffinized tissue sections were imaged by SHG at 780 nm (specific to collagen-1 and -3) simultaneously with TPEF at 780 nm (collected at 550 nm to visualize tissue structure). Both were captured at a ×20 objective and […] resolution. A specialized artificial intelligence analysis program developed by, and proprietary to, HistoIndex were employed to identify and quantify collagen fibres across liver regions with outputs highlighted below and as previously described ([Liu et al., 2017]): • SHG Overall Area (Percentage of total collagen in overall region). • Strings Overall N. (Number of collagen strings in overall region). • Strings Overall Length (Total length of all collagen strings in overall region). • Strings PT Area (Total area of all collagen strings in portal tract region). • Strings PT Length (Total length of all collagen strings in portal tract region). • Strings PS Area (Total area of all collagen strings in peri-sinusoidal region). • Strings PS Length (Total length of all collagen strings in peri-sinusoidal region).
The grading system for inflammation enumerated the number of foci in each 200x field assessed, according to [Kleiner et al. (2005)]: 0 = no foci; 1 = <2 foci; 2 = 2–4 foci; 3 => 4 foci. As shown in the contingency table (Table 3), statistically higher scoring grades were recorded in the HFD+1W Veh group, compared to RD+1W Veh and HFD + 1W 30 mg (both p < 0.05). […]

mouse galectin-3 = biological target: mouse galectin-3; parameters: method as in Zetterberg et al., 2022; conditions: ref Zetterberg et al., 2022; read-out: binding affinity for mouse galectin-3; cited from earlier work
[2] = HFD rabbits, p < 0.001 vs. HFD + 1W Veh

OC[C@H]1O[C@H](Sc2cncc(Br)c2)[C@H](O)[C@@H](n2cc(-c3cc(F)c(F)c(F)c3)nn2)[C@H]1O [selvigaltin]
Ballooning score 0 (no ballooning), share of animals ([1]; HFD rabbits): 0.0%
Ballooning score 1 (few ballooned cells), share of animals ([1]; HFD rabbits): 66.7%
Ballooning score 2 (prominent ballooning), share of animals ([1]; HFD rabbits): 33.3%
Fibrosis (Ishak Score) 0, share of animals ([1]; HFD rabbits): 0.0%
Fibrosis (Ishak Score) 1, share of animals ([1]; HFD rabbits): 0.0%
Fibrosis (Ishak Score) 2, share of animals ([1]; HFD rabbits): 33.3%
Fibrosis (Ishak Score) 3, share of animals ([1]; HFD rabbits): 66.7%
Fibrosis (Ishak Score) 4, share of animals ([1]; HFD rabbits): 0.0%
Fibrosis (Ishak Score) 5, share of animals ([1]; HFD rabbits): 0.0%
Inflammation score 0 (no foci), share of animals ([1]; HFD rabbits): 100.0%
Inflammation score 1 (<2 foci), share of animals ([1]; HFD rabbits): 0.0%
Inflammation score 2 (2–4 foci), share of animals ([1]; HFD rabbits): 0.0%
Inflammation score 3 (> 4 foci), share of animals ([1]; HFD rabbits): 0.0%
Picrosirius Red percentage of fibrosis area [1, 2]: significantly reduced fibrosis to RD levels
SHG percentage of fibrosis area [1, 2]: normalized
Ballooning score 0 (no ballooning), share of animals ([1]; RD rabbits): 100.0%
Ballooning score 1 (few ballooned cells), share of animals ([1]; RD rabbits): 0.0%
Ballooning score 2 (prominent ballooning), share of animals ([1]; RD rabbits): 0.0%
Fibrosis (Ishak Score) 0, share of animals ([1]; RD rabbits): 0.0%
Fibrosis (Ishak Score) 1, share of animals ([1]; RD rabbits): 0.0%
Fibrosis (Ishak Score) 2, share of animals ([1]; RD rabbits): 33.3%
Fibrosis (Ishak Score) 3, share of animals ([1]; RD rabbits): 66.7%
Fibrosis (Ishak Score) 4, share of animals ([1]; RD rabbits): 0.0%
Fibrosis (Ishak Score) 5, share of animals ([1]; RD rabbits): 0.0%
Inflammation score 0 (no foci), share of animals ([1]; RD rabbits): 66.7%
Inflammation score 1 (<2 foci), share of animals ([1]; RD rabbits): 33.3%
Inflammation score 2 (2–4 foci), share of animals ([1]; RD rabbits): 0.0%
Inflammation score 3 (> 4 foci), share of animals ([1]; RD rabbits): 0.0%
Kd (mouse galectin-3): 770 nM

From article PMC11322497 (Frontiers in Pharmacology, 2024)
